The target in one assay is T1, human PPARalpha (Homo sapiens, UniProt Q07869).
T1 construct: amino acids S167-Y468; expressed in transfected cells; host or cells: HEK (human embryo kidney) cells, stably transfected with a pcDNA3 construct
T1 sequence (Q07869 167-468): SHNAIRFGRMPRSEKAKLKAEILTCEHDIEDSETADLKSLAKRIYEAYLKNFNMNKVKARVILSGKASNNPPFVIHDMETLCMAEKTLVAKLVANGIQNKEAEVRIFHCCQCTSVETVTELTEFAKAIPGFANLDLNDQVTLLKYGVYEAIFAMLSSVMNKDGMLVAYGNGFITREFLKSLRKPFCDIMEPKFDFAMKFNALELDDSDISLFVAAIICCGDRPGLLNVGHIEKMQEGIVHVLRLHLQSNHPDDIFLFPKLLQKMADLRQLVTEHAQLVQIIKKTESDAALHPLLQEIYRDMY
In words: Cellular PPARalpha assay (luciferase reporter, stably transfected HEK cell line). The following applies: GR-GAL4-humanPPARalpha-LBD. Format: cell-based. On the procedure:
(§1) The potency of substances which bind to human PPARalpha and activate it in an agonistic manner is analyzed using a stably transfected HEK cell line (HEK=human embryo kidney) which is referred to here as PPARalpha reporter cell line. It contains two genetic elements, a luciferase reporter element (pdeltaM-GAL4-Luc-Zeo) and a PPARalpha fusion protein (GR-GAL4-humanPPARalpha-LBD) which mediates expression of the luciferase reporter element depending on a PPARalpha ligand. The stably and constitutively expressed fusion protein GR-GAL4-humanPPARalpha-LBD binds in the cell nucleus of the PPARalpha reporter cell line via the GAL4 protein portion to the GAL4 DNA binding motifs 5″-upstream of the luciferase reporter element which is stably integrated in the genome of the cell line. There is only weak expression of the luciferase reporter gene in the absence of a PPARalpha ligand if fatty acid-depleted fetal calf serum (cs-FCS) is used in the assay. PPARalpha ligands bind and activate the PPARalpha fusion protein and thereby stimulate the expression of the luciferase reporter gene. The luciferase which is formed can be detected by means of chemiluminescence via an appropriate substrate.
The PPARalpha reporter cell line was prepared in two stages. […]
The activity of PPARalpha agonists is determined in a 3-day assay which is described below: […]

The target in a further assay is T2, human PPARdelta (Homo sapiens, UniProt Q03181).
T2 construct: amino acids S139-Y441; expressed in transfected cells; host or cells: HEK (human embryo kidney) cells, stably transfected with a pcDNA3 construct
T2 sequence (Q03181 139-441): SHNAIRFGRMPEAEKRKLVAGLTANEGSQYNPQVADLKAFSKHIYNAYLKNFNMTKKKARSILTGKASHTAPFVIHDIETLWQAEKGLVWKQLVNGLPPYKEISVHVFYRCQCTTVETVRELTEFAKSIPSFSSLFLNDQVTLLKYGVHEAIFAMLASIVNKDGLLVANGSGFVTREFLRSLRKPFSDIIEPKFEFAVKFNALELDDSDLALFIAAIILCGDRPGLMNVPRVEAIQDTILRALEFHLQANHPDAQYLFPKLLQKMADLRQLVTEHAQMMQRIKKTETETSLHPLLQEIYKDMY
As to the kind of experiment: Cellular PPARdelta assay (luciferase reporter, stably transfected HEK cell line). The assay is classed as cell-based. The following applies: GR-GAL4-humanPPARdelta-LBD. On the procedure:
as §1, with “PPARdelta” for “PPARalpha”, “In analogy to the assay described for PPARalpha, the PPARdelta reporter cell line also” for “It”, “(GR-GAL4-humanPPARdelta-LBD)” for “(GR-GAL4-humanPPARalpha-LBD)”, “GR-GAL4-humanPPARdelta-LBD” for “GR-GAL4-humanPPARalpha-LBD”, “little” for “weak”, “stimulate” for “stimulate the”
The production of the stable PPARdelta reporter cell line is based on a stable HEK-cell clone which was stably transfected with a luciferase reporter element. This step was already described above in the section “construction of the PPARalpha reporter cell line”. […]
The activity of PPARdelta agonists is determined in a 3-day assay in exact analogy to the procedure already described for the PPARalpha reporter cell line except that the PPARdelta reporter cell line and a specific PPARdelta agonist was used as a standard to control test efficacy.

The conditions of assay [1]: diabetic animal model; cited from earlier work.
For assay [2] the following is noted: obese, insulin resistant rhesus monkeys, cited from earlier work.
For assay [3] the following is noted: rhesus and cynomolgus monkeys; cited from earlier work.
The conditions of assay [4]: two weeks clinical trials in healthy volunteers; cited from earlier work.

Molecules are shown by their SMILES. Where two headings read alike, the source gives them in different places.

For orientation: EC50 means the midpoint of the concentration-response curve. A lower EC50 goes with a more potent agent. As for `O=c1[nH]c(-c2ccc(S(=O)(=O)N3CCc4cc(-c5ccc(C(F)(F)F)cc5)ccc43)nc2)no1` [Example 2, 3-{6-[5-(4-Trifluoromethyl-phenyl)-2,3-dihydro-indole-1-sulfonyl]-pyridin-3-yl}-4H-[1,2,4]oxadiazol-5-one], the results for the EC50 at human PPARalpha and at human PPARdelta were 6700 nM and 336 nM, respectively.

Take `CCCc1c(OCCCOc2ccc(OCC(=O)O)cc2)ccc(C(C)=O)c1O` [Example L-165041]: the plasma cholesterol entry in assay [1] is “raises plasma cholesterol”.

As for `Cc1cc(SCc2sc(-c3ccc(C(F)(F)F)cc3)nc2C)ccc1OCC(=O)O` [GW501516], in assay [2] (plasma), the insulin levels result is listed as “decreases” and the triglycerides entry is listed as “decreases”. In assay [2], the HDL-cholesterol entry was “raises” and the “plasma LDL-cholesterol” value was “decreases”.

As to `CCCc1c(OCCCSc2nnc(SCC(=O)O)s2)ccc(C(C)=O)c1O` [YM-16638], the plasma lipids result is reported as “significantly lowers plasma lipids” in assay [3] and “acts in a similar manner” in assay [4].

Consider `O=c1[nH]c(-c2ccc(S(=O)(=O)N3CCc4cc(-c5ccc(C(F)(F)F)cc5)ccc43)s2)no1` [Example 1, 3-{5-[5-(4-Trifluoromethyl-phenyl)-2,3-dihydro-indole-1-sulfonyl]thiophen-2-yl}-4H-[1,2,4]oxadiazol-5-one], for which the results for the half-maximal effective concentration (EC50) on human PPARalpha and on human PPARdelta were 920 nM and 21 nM, respectively.

`O=c1[nH]c(-c2ccc(S(=O)(=O)N3CCc4cc(-c5ccc(C(F)(F)F)cc5)ccc43)cn2)no1` [Example 3, 3-{5-[5-(4-Trifluoromethyl-phenyl)-2,3-dihydro-indole-1-sulfonyl]-pyridin-2-yl}-4H-[1,2,4]oxadiazol-5-one] showed a half-maximal effective concentration (EC50) on human PPARdelta of 13 nM.

Values taken from patent publication US8716317B2, “Sulfonamides with heterocycle and oxadiazolone headgroup, processes for their preparation and their use as pharmaceuticals” (Sanofi, priority 2008, dated 2014).
